# Test results from the NIST ThermoML archive (doi:10.1016/j.jct.2012.06.033).
# Numbers after ± are expanded uncertainties.
# Columns and labels:
# [1] = refractive index (Na D-line) (dimensionless); settings: 298.15 K; 101.33 kPa; Liquid; Standard Abbe refractometry
# [2] = Liquid, Ebulliometric method (Recirculating still)
SMILES,refractive index [1],vapor or sublimation pressure ([2]; 343.15 K),vapor or sublimation pressure ([2]; 353.15 K),vapor or sublimation pressure ([2]; 363.15 K)
CC[N+](=O)[O-] [nitroethane],1.3895 ± 0.0007,22.46 ± 0.13 kPa,32.84 ± 0.17 kPa,47.13 ± 0.22 kPa
C[N+](=O)[O-] [nitromethane],1.3793 ± 0.0007,34.93 ± 0.2 kPa,50.14 ± 0.25 kPa,70.81 ± 0.33 kPa
"ClCCCCCl [1,4-dichlorobutane]",1.4522 ± 0.0004,5.25 ± 0.03 kPa,8.2 ± 0.04 kPa,12.52 ± 0.05 kPa
